Assay results as given in ChEMBL document CHEMBL1201862, “PubChem BioAssay data set” (2004).
Activity calls are given as the source filed them.

Key:
[1] = target: T1, Voltage-gated N-type calcium channel alpha-1B subunit/Amyloid beta A4 precursor protein-binding family A member 1 (Homo sapiens, UniProt Q00975+Q02410); format: protein assay
[2] = target: T1, Voltage-gated N-type calcium channel alpha-1B subunit/Amyloid beta A4 precursor protein-binding family A member 1; format: protein assay; remark: listed apart in the source
[3] = target: T2, Delta-type opioid receptor (Homo sapiens, UniProt P41143); assay: HTS Image-Based Screen for Agonists of the DOR Receptor. [Related pubchem assays (depositor defined):AID1777, AID1786, AID2133]; format: functional
Beta-galactosidase = Beta-galactosidase (Escherichia coli, UniProt Q8VNN2); format: functional
Mu-type opioid receptor = Mu-type opioid receptor (Homo sapiens, UniProt P35372); assay: HTS Image-Based Screen for Agonists of the MOR Receptor. [Related pubchem assays (depositor defined):AID1777, AID1785, AID1786, AID2133]; format: functional;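 further: imaging of beta-arrestin GFP recruitment into spots after receptor activation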
[4] = target: T3, Kappa-type opioid receptor (Homo sapiens, UniProt P41145); format: functional
T3 sequence (P41145 whole entry): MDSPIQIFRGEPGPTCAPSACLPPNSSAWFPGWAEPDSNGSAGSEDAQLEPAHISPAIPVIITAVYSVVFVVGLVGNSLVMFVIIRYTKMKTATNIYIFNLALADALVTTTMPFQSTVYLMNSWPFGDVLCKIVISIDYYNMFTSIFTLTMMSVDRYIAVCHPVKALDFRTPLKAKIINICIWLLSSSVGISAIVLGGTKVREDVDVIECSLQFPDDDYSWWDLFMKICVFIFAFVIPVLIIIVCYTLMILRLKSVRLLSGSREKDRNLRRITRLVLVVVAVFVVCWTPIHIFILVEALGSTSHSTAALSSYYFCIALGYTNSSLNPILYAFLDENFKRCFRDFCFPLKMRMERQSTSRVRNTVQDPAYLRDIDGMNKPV

[5] = target: T3, Kappa-type opioid receptor; format: functional; remark: listed apart in the source
[6] = target: T2, Delta-type opioid receptor; assay: HTS Image-Based Screen for Antagonists of the DOR Receptor. [Related pubchem assays (depositor defined):AID1777, AID1785, AID1786, AID2133]; format: functional
[7] = fluconazole-exposed Candida albicans growth modulators – fluorescence, retest, confirmation (AID 2467); format: functional, cell-based
[8] = Trypanosoma cruzi growth suppression in host cells – NIH3T3 host cells, beta-gal luminescence, confirmation (AID 2044); format: functional, cell-based;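 further: intracellular parasites grown in NIH/3T3 mouse fibroblasts as host cells; luminescent beta-galactosidase reporter signal from transgenic T. cruzi replicating inside host cells; inhibitors lower the luminescence signal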
[9] = bead-based luminescence quenchers, dual-tagged ARNT – biochemical, AlphaScreen, cherry-pick, artefact control for ARNT-TACC3 interaction inhibitor project, dose response (AID 651705); format: functional;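 further: AlphaScreen bead proximity signal that flags compounds interfering with the detection technology; potency reflects signal decrease which marks the compound as an assay artifact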
[10] = NIH-3T3 fibroblast cytotoxicity, dose response, cytotoxicity control, cell-based, fluorescence, Alamar Blue, secondary assay (AID 2327); format: functional;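 further: NIH-3T3 mouse fibroblasts cultured with fluconazole at 8 µg/mL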
[11] = NIH3T3 cell viability loss – ATP luminescence, mouse fibroblasts, counter-screen, dose response (AID 2010); format: functional, cell-based;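 further: cells exposed to compound for about 90 hours before reading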
SUMO-activating enzyme = SUMO-activating enzyme (Homo sapiens, UniProt Q9UBT2); assay: blockers of UBC9-mediated SUMO conjugation – biochemical, AlphaScreen, SUMOylation inhibitor project, confirmation (AID 2018); format: functional
Sequence of SUMO-activating enzyme (Q9UBE0 whole entry): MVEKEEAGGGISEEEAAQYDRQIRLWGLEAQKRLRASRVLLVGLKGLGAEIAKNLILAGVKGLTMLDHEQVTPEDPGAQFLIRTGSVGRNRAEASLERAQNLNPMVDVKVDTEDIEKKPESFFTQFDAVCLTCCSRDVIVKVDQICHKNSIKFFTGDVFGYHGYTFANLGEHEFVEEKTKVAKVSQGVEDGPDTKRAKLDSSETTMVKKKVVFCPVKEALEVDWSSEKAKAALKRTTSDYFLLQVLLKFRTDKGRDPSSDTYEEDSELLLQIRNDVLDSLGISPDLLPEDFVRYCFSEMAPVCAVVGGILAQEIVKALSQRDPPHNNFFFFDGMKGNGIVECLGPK
Sequence of SUMO-activating enzyme (Q9UBT2 whole entry): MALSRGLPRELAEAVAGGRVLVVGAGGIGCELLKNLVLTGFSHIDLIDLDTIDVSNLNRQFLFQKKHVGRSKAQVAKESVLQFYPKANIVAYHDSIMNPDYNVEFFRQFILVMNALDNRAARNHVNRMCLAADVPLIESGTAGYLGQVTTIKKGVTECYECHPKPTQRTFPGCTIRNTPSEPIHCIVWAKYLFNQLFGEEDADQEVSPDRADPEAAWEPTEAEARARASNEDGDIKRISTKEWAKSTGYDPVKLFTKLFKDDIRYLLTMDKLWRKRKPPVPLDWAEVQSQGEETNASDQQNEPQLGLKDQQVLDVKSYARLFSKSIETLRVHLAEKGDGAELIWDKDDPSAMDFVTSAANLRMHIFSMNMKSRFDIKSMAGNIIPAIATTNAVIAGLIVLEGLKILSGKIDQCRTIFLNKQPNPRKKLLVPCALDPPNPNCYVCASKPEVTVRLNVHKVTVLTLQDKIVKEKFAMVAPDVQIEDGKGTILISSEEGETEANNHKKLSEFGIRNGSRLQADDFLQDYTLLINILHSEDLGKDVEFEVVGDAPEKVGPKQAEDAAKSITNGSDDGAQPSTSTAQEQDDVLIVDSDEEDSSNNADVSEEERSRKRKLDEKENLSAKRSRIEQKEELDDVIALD

[12] = viability loss in THP-1 monocytes – THP-1 cells, cytotoxicity control for Vif-APOBEC3G degradation inhibitor project, dose response (AID 1117359); format: functional; settings: THP-1
[13] = target: T4, Calpain-2 catalytic subunit (Sus scrofa, UniProt P43367); assay: m-calpain protease blockers, concentration series – biochemical, fluorogenic peptide substrate, dose response (AID 1420); format: functional
T4 sequence (P43367 whole entry): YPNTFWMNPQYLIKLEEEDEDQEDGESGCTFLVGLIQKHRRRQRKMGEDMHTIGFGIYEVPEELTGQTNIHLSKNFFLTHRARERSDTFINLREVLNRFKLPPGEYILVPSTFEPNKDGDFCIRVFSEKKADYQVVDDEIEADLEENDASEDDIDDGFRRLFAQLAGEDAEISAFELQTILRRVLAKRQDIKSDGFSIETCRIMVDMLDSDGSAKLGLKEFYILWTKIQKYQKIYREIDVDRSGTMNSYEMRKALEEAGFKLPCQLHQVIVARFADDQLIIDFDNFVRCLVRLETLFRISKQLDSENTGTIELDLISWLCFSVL

[14] = target: T5, Hepatocyte nuclear factor 4-alpha (Homo sapiens, UniProt P41235); format: functional, cell-based;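 further: biochemical luminescence-based dose-response counterscreen measuring inhibition of HNF4 dimerization, run alongside a screen for blockers of ABHD5–perilipin-5 interaction; split luciferase complementation of HNF4 fusion proteins in cell lysate measuring dimerization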
T5 sequence (P41235 whole entry): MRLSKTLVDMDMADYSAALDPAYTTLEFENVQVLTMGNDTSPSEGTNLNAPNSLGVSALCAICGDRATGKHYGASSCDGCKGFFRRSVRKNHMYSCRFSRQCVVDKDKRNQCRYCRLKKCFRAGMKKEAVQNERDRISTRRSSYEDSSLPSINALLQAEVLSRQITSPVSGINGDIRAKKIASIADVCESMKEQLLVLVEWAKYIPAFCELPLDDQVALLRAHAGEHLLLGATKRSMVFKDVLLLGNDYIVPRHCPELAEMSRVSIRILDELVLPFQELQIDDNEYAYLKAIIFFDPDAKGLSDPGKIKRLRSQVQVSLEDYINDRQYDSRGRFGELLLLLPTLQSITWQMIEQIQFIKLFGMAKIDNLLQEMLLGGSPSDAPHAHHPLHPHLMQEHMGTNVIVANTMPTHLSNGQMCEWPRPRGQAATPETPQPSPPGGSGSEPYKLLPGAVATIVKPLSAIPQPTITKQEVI

[15] = target: Lysine-specific demethylase 4C (Homo sapiens, UniProt Q9H3R0); assay: inhibition of JMJD2C H3K9me3 demethylation – biochemical, DELFIA europium, cherry-picked samples, dose response (AID 488835); format: functional
[16] = target: Alkaline phosphatase, placental type (Homo sapiens, UniProt P05187); assay: human placental alkaline phosphatase inhibition – biochemical, luminescence, confirmation (AID 1512); format: functional
Sequence of Alkaline phosphatase, placental type (P05187 whole entry): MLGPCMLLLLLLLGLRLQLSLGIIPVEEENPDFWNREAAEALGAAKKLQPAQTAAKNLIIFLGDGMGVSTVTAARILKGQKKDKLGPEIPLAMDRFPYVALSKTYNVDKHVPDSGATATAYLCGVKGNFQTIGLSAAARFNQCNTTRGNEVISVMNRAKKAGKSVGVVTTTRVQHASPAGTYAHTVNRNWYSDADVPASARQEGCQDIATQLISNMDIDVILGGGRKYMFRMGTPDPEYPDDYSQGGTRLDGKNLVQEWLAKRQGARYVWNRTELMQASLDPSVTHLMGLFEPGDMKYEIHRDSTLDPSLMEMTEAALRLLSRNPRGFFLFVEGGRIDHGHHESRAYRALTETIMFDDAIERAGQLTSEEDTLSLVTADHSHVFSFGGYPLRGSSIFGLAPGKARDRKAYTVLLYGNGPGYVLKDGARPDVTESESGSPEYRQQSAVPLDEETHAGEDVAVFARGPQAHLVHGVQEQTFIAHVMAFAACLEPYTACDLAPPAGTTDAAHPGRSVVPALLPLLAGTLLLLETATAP

Trypsin = Trypsin (Sus scrofa, UniProt P00761); assay: trypsin protease activity blockade – biochemical, quenched peptide fluorescence, cherry-pick, selectivity assay for Rce1 protease inhibitor project, dose response (AID 488789)
CAAX prenyl protease 2 = target: T6, CAAX prenyl protease 2 (Saccharomyces cerevisiae S288c, UniProt Q03530); format: biochemical
T6 sequence (Q03530 whole entry): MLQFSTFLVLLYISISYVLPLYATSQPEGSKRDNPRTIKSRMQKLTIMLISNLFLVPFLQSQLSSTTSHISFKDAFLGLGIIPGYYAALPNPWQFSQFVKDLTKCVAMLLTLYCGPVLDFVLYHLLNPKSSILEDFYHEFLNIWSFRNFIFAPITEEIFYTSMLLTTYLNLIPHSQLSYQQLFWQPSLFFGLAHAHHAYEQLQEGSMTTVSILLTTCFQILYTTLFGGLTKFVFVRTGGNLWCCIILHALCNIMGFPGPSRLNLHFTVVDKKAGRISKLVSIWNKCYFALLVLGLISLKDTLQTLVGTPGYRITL

H9c2 = assay: cells; format: functional, cell-based; settings: Rattus norvegicus, H9c2, Myocardium;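 further: confirmatory concentration-response retest of ultra-high-throughput screening hits for modulation of myocardial damage; cell death induced by hydrogen peroxide oxidative stress; compound pretreatment for 60 min then peroxide exposure for 2 h; potency is for protecting the cells against peroxide damage rather than for killing them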
[17] = Luminescence Cell-Based Dose Response HTS to Identify Activators of Luciferase Translation or Activity in H4 […] Cells. [Related pubchem assays: 1829 (Project Summary), 1814 (Primary HTS)]; format: functional
H4 = assay: Luminescence Cell-Based Dose Response HTS to Identify Activators of 5'UTR Stem-Loop Driven Prion Protein mRNA Translation in H4 Neuroglioblastoma Cells. [Related pubchem assays: 1829 (Project Summary), 1814 (Primary HTS)]; format: functional; settings: Homo sapiens
[18] = Luminescence Cell-Based Dose Confirmation HTS to Identify Activators of 5'UTR Stem-Loop Driven Alpha-Synuclein mRNA Translation in H4 Neuroglioblastoma Cells. [Related pubchem assays: 1829 (Project Summary), 1814 (Primary HTS)]; format: functional
[19] = target: T7, Tyrosine-protein phosphatase non-receptor type 7 (Homo sapiens, UniProt P35236); assay: inhibition of hematopoietic tyrosine phosphatase HePTP – biochemical, set 2, SAR follow-up (AID 449736); format: functional
T7 sequence (P35236 whole entry): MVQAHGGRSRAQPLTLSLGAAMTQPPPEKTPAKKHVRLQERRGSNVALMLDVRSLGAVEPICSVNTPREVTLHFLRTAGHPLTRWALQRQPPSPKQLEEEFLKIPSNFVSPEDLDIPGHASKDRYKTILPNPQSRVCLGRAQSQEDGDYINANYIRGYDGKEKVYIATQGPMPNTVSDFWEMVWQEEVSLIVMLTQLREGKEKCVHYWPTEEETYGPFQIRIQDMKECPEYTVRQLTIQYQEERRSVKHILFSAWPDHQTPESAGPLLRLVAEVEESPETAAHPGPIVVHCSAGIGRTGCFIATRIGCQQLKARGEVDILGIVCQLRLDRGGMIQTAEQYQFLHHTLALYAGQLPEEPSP

[20] = target: T8, Corticotropin-releasing factor receptor 2/Corticotropin-releasing factor-binding protein (Homo sapiens, UniProt P24387+Q13324); assay: Dose Response confirmation of uHTS hits for small molecule antagonists of the CRF-binding protein and CRF-R2 receptor complex.; format: functional; settings: read-out: IC50_Mean
T8 sequence (Q13324 whole entry): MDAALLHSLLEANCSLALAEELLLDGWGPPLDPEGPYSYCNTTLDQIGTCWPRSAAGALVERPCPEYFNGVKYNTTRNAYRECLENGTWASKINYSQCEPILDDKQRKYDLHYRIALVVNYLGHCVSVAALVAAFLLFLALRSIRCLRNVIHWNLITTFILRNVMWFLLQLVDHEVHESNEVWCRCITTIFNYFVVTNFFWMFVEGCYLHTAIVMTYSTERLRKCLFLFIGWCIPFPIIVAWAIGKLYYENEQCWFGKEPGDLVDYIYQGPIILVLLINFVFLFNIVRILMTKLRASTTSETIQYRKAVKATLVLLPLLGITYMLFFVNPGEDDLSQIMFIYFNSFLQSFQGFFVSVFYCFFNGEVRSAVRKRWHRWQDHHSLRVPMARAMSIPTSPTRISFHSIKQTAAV
T8 sequence (P24387 whole entry): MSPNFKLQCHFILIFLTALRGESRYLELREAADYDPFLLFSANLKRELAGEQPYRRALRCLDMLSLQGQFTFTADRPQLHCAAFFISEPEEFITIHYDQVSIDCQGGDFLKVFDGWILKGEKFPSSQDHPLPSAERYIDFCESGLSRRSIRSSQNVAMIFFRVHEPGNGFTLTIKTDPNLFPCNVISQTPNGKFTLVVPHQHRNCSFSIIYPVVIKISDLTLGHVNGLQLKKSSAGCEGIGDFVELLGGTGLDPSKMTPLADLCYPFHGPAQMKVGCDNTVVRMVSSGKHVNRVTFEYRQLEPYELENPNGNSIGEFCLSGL

[21] = target: T8, Corticotropin-releasing factor receptor 2/Corticotropin-releasing factor-binding protein; assay: activators of CRF receptor 2 with binding protein – uHTS hits, confirmation (AID 602473); format: functional; settings: read-out: EC50_Mean
[22] = target: T9, Microphthalmia-associated transcription factor (Homo sapiens, UniProt O75030); assay: reducers of TRPM1 reporter luminescence, concentration series – cell-based, SK-MEL-5, cherry-picked, set 3, MITF inhibitor project, dose response (AID 493073); format: functional;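 further: SK-MEL-5 melanoma cells with luciferase driven by the MITF target TRPM1 promoter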
T9 sequence (O75030 whole entry): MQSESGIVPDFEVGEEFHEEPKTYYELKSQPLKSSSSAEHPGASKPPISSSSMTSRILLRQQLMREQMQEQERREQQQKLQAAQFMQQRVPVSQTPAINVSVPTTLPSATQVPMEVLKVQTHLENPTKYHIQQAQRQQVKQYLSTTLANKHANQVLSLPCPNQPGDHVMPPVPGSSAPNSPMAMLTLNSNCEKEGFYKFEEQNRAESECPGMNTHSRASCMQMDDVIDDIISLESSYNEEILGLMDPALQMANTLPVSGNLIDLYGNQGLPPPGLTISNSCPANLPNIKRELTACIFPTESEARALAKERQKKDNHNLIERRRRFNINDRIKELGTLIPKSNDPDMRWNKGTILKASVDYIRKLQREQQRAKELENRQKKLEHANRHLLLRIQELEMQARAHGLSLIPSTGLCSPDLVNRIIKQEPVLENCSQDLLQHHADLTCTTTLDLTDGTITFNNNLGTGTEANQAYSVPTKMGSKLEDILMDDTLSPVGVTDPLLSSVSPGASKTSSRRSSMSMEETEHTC

Nonstructural protein 1 = Nonstructural protein 1 (Influenza A virus, UniProt Q194T2); format: functional, Influenza A virus (A/California/07/2009(H1N1))

T1 sequence (Q00975 whole entry): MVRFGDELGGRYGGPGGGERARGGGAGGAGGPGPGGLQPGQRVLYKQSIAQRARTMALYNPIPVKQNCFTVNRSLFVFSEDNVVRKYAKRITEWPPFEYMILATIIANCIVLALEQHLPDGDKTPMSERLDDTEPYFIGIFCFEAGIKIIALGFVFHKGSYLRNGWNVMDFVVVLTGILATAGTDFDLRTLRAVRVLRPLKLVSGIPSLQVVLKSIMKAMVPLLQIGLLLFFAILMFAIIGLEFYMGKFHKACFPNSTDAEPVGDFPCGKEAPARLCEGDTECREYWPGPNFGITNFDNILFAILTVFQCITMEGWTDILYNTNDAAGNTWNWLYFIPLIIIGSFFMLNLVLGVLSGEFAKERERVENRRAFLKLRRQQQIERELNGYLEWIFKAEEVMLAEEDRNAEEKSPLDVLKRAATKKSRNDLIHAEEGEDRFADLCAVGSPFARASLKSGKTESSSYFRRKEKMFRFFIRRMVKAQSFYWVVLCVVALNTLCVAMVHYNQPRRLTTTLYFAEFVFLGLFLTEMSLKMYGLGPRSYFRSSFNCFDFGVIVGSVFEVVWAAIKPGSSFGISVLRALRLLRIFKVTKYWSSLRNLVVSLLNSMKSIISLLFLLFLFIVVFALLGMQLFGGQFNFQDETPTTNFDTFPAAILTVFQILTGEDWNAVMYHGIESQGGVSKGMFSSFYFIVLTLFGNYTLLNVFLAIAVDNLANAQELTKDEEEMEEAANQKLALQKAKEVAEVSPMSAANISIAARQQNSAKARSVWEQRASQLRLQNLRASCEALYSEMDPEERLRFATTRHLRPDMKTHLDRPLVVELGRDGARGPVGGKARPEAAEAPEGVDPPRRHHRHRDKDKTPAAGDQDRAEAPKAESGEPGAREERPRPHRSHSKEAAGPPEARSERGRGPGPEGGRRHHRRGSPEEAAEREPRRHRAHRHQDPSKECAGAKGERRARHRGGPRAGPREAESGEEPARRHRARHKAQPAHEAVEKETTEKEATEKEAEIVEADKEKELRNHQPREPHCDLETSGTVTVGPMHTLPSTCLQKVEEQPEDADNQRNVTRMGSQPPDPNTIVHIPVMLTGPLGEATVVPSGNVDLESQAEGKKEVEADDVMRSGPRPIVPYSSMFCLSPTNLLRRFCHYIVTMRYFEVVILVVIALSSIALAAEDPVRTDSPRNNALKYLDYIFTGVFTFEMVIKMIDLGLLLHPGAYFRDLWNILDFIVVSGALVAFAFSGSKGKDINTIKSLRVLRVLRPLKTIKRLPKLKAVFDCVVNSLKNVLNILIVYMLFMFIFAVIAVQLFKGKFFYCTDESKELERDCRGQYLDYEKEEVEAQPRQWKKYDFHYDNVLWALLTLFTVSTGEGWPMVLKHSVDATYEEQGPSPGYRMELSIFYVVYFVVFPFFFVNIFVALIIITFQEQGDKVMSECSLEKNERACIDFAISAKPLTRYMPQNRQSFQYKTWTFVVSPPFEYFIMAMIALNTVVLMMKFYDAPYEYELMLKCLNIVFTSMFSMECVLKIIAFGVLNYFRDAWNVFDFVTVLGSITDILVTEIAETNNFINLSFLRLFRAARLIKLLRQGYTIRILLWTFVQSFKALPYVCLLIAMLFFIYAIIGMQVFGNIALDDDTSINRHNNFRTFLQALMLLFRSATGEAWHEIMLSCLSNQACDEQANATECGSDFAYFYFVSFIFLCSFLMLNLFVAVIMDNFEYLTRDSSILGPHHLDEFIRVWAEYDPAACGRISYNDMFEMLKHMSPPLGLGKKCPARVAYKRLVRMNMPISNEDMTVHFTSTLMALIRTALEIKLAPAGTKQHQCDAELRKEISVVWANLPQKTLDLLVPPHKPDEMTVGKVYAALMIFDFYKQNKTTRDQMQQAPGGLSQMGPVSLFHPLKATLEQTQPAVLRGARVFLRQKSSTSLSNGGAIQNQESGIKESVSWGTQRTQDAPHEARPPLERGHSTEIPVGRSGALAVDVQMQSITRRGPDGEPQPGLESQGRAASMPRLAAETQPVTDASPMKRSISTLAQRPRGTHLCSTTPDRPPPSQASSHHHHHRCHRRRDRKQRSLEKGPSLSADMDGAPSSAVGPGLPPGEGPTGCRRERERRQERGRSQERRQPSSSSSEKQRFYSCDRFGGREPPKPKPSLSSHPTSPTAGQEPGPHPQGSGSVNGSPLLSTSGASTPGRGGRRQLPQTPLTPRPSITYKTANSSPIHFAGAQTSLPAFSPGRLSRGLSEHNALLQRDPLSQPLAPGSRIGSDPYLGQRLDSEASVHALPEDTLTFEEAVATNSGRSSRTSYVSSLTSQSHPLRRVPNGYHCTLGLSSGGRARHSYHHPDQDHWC
T1 sequence (Q02410 whole entry): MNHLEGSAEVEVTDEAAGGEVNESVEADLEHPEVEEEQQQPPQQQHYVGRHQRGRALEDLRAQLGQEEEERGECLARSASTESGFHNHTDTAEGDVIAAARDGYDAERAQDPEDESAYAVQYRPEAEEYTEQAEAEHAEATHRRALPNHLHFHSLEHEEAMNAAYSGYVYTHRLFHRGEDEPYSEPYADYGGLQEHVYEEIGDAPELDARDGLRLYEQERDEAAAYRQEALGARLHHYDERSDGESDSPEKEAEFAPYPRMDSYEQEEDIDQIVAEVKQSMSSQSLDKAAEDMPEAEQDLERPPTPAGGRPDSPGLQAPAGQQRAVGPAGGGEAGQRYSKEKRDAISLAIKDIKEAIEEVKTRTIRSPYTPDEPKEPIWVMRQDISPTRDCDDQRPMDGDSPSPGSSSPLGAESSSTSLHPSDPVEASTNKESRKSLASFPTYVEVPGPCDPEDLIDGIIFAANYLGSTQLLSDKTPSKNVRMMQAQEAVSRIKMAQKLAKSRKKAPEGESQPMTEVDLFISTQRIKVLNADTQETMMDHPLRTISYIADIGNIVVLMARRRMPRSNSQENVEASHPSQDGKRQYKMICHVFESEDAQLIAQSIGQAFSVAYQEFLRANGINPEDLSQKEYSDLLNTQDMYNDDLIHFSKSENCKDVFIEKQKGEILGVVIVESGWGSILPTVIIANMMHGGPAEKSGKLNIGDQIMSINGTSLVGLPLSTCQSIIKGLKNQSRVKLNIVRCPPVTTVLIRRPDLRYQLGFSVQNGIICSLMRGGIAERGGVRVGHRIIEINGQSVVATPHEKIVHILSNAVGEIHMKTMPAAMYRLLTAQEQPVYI

COc1cc(NC(=O)c2cccs2)ccc1NC(=O)c1cc2ccccc2o1
IC50 [1]: 11.2 µM (active) | IC50 [2]: > 50 µM (inactive)

O=S(=O)(Nc1cccc2cccnc12)c1ccc(S(=O)(=O)N2CCCC2)cc1
EC50 [3]: > 32 µM (inactive) | EC50 (Beta-galactosidase): > 31.5 µM (inactive) | EC50 (Mu-type opioid receptor): > 32 µM (inactive) | IC50 [4]: 8.52 µM (active) | IC50 [5]: > 32 µM | IC50 [6]: > 32 µM (inactive) | EC50 [7]: 4.29 µM (active) | EC50 [8]: 2.33 µM (active) | AC50 [9]: 110 µM (active) | EC50 [10]: 17.2 µM (active) | EC50 [11]: 5.05 µM (active)

COc1ccc(/C=C/c2nnc(NC(=O)CSc3ccc(C)cc3)s2)cc1
IC50 (SUMO-activating enzyme): > 100 µM (inactive) | CC50 [12]: > 40 µM (active)

CC1CN(Cc2c(O)ccc3c2oc(=O)c2ccccc23)CC(C)O1 (stereo not drawn)
IC50 [13]: 3.06 µM (not active) | IC50 [14]: 2.68 µM (active) | AC50 [15]: 0.95 µM (active)

Cc1cccc2nc(CSc3nc4ccccc4[nH]3)cn12
IC50 [16]: > 100 µM (inactive)

COC(=O)c1ccc(CSc2nc(O)c3c(C)c(C(=O)O)sc3n2)cc1
AC50 [15]: 10.6 µM (active)

NC(=O)c1nsc(C(=O)N(c2ccccc2F)C(C(=O)NCc2ccccc2)c2ccc(O)cc2)c1N (stereo not drawn)
AC50 (Trypsin): 12 µM (active) | AC50 (CAAX prenyl protease 2): 13.8 µM (active) | IC50 (H9c2): > 79 µM (inactive)

NC1=C(c2nc(-c3ccc(Cl)cc3)cs2)C(=O)CN1NC(=O)c1ccc(O)cc1
IC50 [1]: 7.51 µM (active) | EC50 [17]: 9.72 µM (active) | IC50 [2]: > 50 µM (inactive) | EC50 (H4): 94.6 µM (active) | EC50 [18]: > 120 µM (not active)

NC1(C(Cl)(Cl)Cl)Oc2cc(Cl)c(Cl)cc2O1
IC50 [16]: > 100 µM (inactive)

NS(=O)(=O)c1ccc(NC(=S)NC2CCN(Cc3ccccc3)CC2)cc1
IC50 [19]: > 100 µM (inactive)

O=C(CC1SC(N/N=C/C=C/c2ccccc2)=NC1=O)Nc1ccc(Cl)c(Cl)c1 (stereo not drawn)
IC50 [20]: > 47.1 µM (inactive) | EC50 [21]: > 53 µM (inactive) | IC50 (SUMO-activating enzyme): 34.6 µM (active)

C/C(=N\NC(=O)C1COc2ccccc2O1)c1ccccn1 (stereo not drawn)
EC50 (Beta-galactosidase): > 31.5 µM (inactive) | AC50 [22]: 4.49 µM (active) | IC50 [4]: 6.93 µM (active) | IC50 [5]: > 32 µM | IC50 (Nonstructural protein 1): 5.62 µM (active)
